Reference: patent US8980848B2, “Flavonoid dimers and their use” (The Hong Kong Polytechnic University, priority 2010, dated 2015)

What was measured:
[1] = Tumor cell line cytotoxicity of flavonoid dimers, LCC6MDR; format: cell-based, human; details: human, LCC6MDR cells, IC50 of compound alone
Summary of the method: (§1)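 LCC6, LCC6MDR and L929 cells seeded at 1×10^4 cells/well and exposed to graded doses of flavonoid dimers. Incubation 72 hrs at 37° C., 5% CO2. Read-out: % survivors.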

[2] = Tumor cell line cytotoxicity of flavonoid dimers, LCC6; format: cell-based, human; details: human, LCC6 cells, IC50 of compound alone
Summary of the method: as §1

[3] = Cytotoxicity of flavonoid dimers, L929 mouse fibroblast; format: cell-based; details: mouse, L929 fibroblast cells, IC50 of compound alone, 72 hrs, mouse fibroblast
Summary of the method: as §1

[4] = Cytotoxicity over LCC6, LCC6MDR and L929 cell lines; format: cell-based, human, mouse; details: human, mouse, LCC6MDR and L929 cell lines; cancer lines LCC6, LCC6MDR and/or L929
LCC6 cells [5] = assay: Doxorubicin accumulation in LCC6 cells; format: cell-based, human; details: 1 μM
From the text: Doxorubycin accumulation. […] […].

LCC6 cells [6] = assay: Doxorubicin influx in LCC6 cells; format: cell-based, human; details: after 75 min
Description: (§2) Influx and Efflux Studies. […] 0.15% of DMSO acted as a negative control. The cells were harvested after 0, 15, 30, 45, 75 min for determining the intracellular Doxorubycin concentration as described previously. […] The cells were then washed and further incubated in the presence or absence of compound 18 (1 or 3 μM). At 0, 15, 30, 60, 90, 120, 150 and 180 min, the cells were harvested for measuring the intracellular Doxorubycin concentration.
(§3) Effect of Compound 18 on Doxorubicin Influx and Efflux of MDA435/LCC6MDR Cells. Experiments were performed to determine whether the increased accumulation of doxorubicin in LCC6MDR cells caused by 18 is due to potentiation of doxorubicin influx or inhibition of efflux.

LCC6MDR cells = assay: Doxorubicin influx in LCC6MDR cells; format: cell-based, human; details: for Intracellular doxorubicin level, influx: LCC6MDR, after 75 min
Description: as §2, §3

LCC6 cells [7] = assay: Doxorubicin efflux in LCC6 cells; format: cell-based, human; details: after 3 hrs
Description: as §2
In the efflux experiments, both LCC6 and LCC6MDR were first pre-loaded with doxorubicin for 2 hrs, washed and the remaining doxorubicin was measured after 0, 15, 30, 60, 90, 120, 150 and 180 min. […] Thus efflux rate of LCC6MDR is higher than LCC6. At 1DM or 3 μM of 18, the doxorubicin efflux rate was unaltered in the wild type LCC6 cells. After 3 hrs, the intracellular doxorubicin levels of LCC cells at 1 μM (3122 FU, 71% of doxorubicin remained) and 3 μM (3103 FU, 71% of doxorubicin remained) were very close to that at 0 μM (2601 FU, 60% of doxorubicin remained), respectively (FIG. 3A).

[8] = tested on: LdAG83 promastigotes (wild type); assay: In vitro anti-promastigote activity, LdAG83; format: cell-based, Leishmania donovani; details: Leishmania donovani, 72 h, read-out: Anti-promastigotes activity (IC50, μM) LdAG83
Summary of the method: (§4)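 L. donovani (LdAG83 wild type, SSG-resistant Ld39) and L. major Lm50122 promastigotes were seeded at 1×10^5 per well with a concentration series of compound.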

[9] = tested on: Ld39 promastigotes (SSG-resistant); assay: In vitro anti-promastigote activity, Ld39; format: cell-based, Leishmania donovani; details: Leishmania donovani, 72 h, read-out: Anti-promastigotes activity (IC50, μM) Ld39
Summary of the method: as §4

Raw264.7 cells = assay: Cytotoxicity, mouse macrophage Raw264.7; format: cell-based; details: Mus musculus, RAW264.7, 72 h
Summary of the method: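 Raw264.7 (1×10^4 cells/well) and primary PEM cells (2×10^4 cells/well) in supplemented DMEM received graded compound doses and were incubated 72 h at 37 °C, 5% CO2. Percent survivors determined; cytotoxicity IC50 used for therapeutic index against antileishmanial IC50.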

Pgp (LCC6MDR cells) [10] = target: T1, Pgp (LCC6MDR cells) (Homo sapiens, UniProt P08183); assay: Doxorubicin accumulation in LCC6MDR cells
T1 sequence (P08183 whole entry): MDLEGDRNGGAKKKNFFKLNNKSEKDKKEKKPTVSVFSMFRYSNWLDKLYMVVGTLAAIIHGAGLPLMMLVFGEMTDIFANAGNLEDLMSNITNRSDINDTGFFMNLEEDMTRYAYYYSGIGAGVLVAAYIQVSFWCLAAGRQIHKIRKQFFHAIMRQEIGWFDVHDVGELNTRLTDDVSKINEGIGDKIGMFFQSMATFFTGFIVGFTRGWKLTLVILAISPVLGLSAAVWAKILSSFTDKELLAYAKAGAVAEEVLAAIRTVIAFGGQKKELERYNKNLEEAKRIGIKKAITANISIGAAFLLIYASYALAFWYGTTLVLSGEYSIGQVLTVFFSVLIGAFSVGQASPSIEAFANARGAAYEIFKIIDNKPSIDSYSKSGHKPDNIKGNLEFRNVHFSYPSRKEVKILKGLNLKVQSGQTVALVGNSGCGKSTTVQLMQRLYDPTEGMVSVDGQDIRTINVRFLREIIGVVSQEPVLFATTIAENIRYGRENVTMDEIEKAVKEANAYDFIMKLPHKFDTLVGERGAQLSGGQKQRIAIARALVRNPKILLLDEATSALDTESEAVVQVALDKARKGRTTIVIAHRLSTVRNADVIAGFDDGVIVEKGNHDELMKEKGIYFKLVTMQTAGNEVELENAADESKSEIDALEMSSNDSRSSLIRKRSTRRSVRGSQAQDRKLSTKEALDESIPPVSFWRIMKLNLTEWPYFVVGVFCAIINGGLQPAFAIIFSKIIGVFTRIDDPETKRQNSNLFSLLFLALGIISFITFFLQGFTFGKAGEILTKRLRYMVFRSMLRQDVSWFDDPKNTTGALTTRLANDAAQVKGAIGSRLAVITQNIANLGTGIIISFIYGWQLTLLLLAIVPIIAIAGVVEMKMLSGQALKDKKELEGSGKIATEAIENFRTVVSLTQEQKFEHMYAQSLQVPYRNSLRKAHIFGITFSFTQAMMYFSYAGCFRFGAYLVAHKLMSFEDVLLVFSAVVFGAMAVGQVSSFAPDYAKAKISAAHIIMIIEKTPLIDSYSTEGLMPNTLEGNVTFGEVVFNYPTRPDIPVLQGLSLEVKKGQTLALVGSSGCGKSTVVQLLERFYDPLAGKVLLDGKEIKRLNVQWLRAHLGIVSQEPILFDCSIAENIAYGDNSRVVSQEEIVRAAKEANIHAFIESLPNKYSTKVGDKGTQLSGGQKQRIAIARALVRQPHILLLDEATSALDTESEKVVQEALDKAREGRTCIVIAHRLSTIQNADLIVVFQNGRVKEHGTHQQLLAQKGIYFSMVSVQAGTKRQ

Pgp (LCC6MDR cells) [11] = target: T1, Pgp (LCC6MDR cells); assay: Cell proliferation assay: Pgp-modulating activity, reversal of anticancer drug resistance in LCC6MDR cells; details: for EC50: EC50 of compounds for reversing anticancer drug resistance (nM), LCC6MDR
LCC6 cells [12] = assay: Cell proliferation assay: paclitaxel on parental LCC6 cells without modulator; format: cell-based; details: Homo sapiens, LCC-6, no modulator, read-out: IC50 of paclitaxel of LCC6 in the absence of modulators
From the text: Cell Proliferation Assay.

In the case of `O=c1cc(-c2ccc(OCCOCCN(CCOCCOc3ccc(-c4cc(=O)c5ccccc5o4)cc3)Cc3ccccc3)cc2)oc2ccccc12` [Compound 18, 1,13-Bis[4′-(4H-chromen-4-on-2-yl)phenyl]-N-(benzyl)-1,4,10,13-tetraoxa-7-azamidecane], the IC50 at 72 h [1] is reported as > 63 µM, the IC50 at 72 h [2] is reported as > 75 µM and the IC50 at 72 h [3] is reported as 85 µM. The IC50 at 72 h [4] was > 63000 nM, the “Effect on intracellular doxorubicin accumulation in parental LCC6” value (LCC6 cells [5]) was “does not increase” and the “Intracellular doxorubicin level, influx” value (LCC6 cells [6]; LCC6, 1 μM) was 0-1320 FU. For the same compound, the “Intracellular doxorubicin level, influx” value (LCC6 cells [6]; LCC6, 3 μM) was 0-1035 FU, the “Effect on doxorubicin influx” value (LCC6MDR cells; 1 or 3 μM, LCC6 and LCC6MDR) was “no effect on doxorubicin influx” and the “Intracellular doxorubicin level, influx” value (LCC6MDR cells; 1 μM) was 0-803 FU. The “Intracellular doxorubicin level, influx” value (LCC6MDR cells; 3 μM) was 0-909 FU, the Doxorubicin remained (LCC6 cells [7]; LCC6, 1 μM) was 71% and the “Intracellular doxorubicin level, efflux” value (LCC6 cells [7]; LCC6, 1 μM) was 3122 FU. For the same compound, the Doxorubicin remained (LCC6 cells [7]; LCC6, 3 μM) was 71%, the “Intracellular doxorubicin level, efflux” value (LCC6 cells [7]; LCC6, 3 μM) was 3103 FU and the IC50 [8] was 8.4 ± 6.1 µM. For the same compound, the IC50 [9] was 12.3 ± 6 µM, the IC50 (Raw264.7 cells) was > 79000 nM and the “Fold more active than verapamil in inhibiting doxorubicin transport activity of Pgp” value (Pgp (LCC6MDR cells) [10]) was “roughly 16 fold”. For the same compound, the “Concentration to restore doxorubicin accumulation in LCC6MDR to levels of parental LCC6” value (Pgp (LCC6MDR cells) [10]; LCC6MDR) was 500 nM, the EC50 (Pgp (LCC6MDR cells) [11]; Daunorubicin) was 95 ± 25 nM and the EC50 (Pgp (LCC6MDR cells) [11]; Doxorubicin) was 131 ± 13 nM. It also gave an EC50 (Pgp (LCC6MDR cells) [11]; Mitoxantrone) of 90 ± 20 nM, an EC50 (Pgp (LCC6MDR cells) [11]; Paclitaxel) of 148 ± 18 nM and an EC50 (Pgp (LCC6MDR cells) [11]; Vinblasinte, vinblastine) of 173 ± 27 nM. The EC50 (Pgp (LCC6MDR cells) [11]; Vincristine) was 179 ± 32 nM and the Therapeutic index (Pgp (LCC6MDR cells) [11]; IC50 of compounds for L929/EC50 of compounds for lowering paclitaxel drug resistance) was 574.3.

For `COc1ccc(CCN(C)CCCC(C#N)(c2ccc(OC)c(OC)c2)C(C)C)cc1OC` (stereo not shown) [Verapamil, verapamil, reference compound], the “Effect on intracellular doxorubicin accumulation in parental LCC6” value (LCC6 cells [5]) was “does not increase”.

For `CC(=O)O[C@H]1C(=O)[C@@]2(C)[C@H]([C@H](OC(=O)c3ccccc3)[C@]3(O)C[C@H](OC(=O)[C@H](O)[C@@H](NC(=O)c4ccccc4)c4ccccc4)C(C)=C1C3(C)C)[C@]1(OC(C)=O)CO[C@@H]1C[C@@H]2O` [paclitaxel], the IC50 (LCC6 cells [12]) was 1.6 ± 0.3 nM.
